In PMC5559406, “A human PET study of [^11C]HMS011, a potential radioligand for AMPA receptors” (EJNMMI Research, 2017):
pKd: −log10 of the molar value.

Molecular target: T1, human AMPA receptors
T1 construct: gene GRIA1; assay details only in supplement
Experiment: radioligand receptor binding assay (details in supplement)
Details: labelled compound; noncompetitive (perampanel derivative); subunit not told

CNc1cccc(-n2cc(-c3ncccn3)cc(-c3ccccc3C#N)c2=O)c1 [[11C]HMS011, 2-(1-(3-([^11C]methylamino)phenyl)-2-oxo-5-(pyrimidin-2-yl)-1,2-dihydropyridin-3-yl) benzonitrile]
pKd: ~7.82
